These results are taken from patent EP0144170B1, “Biosynthesis of unnatural cephalosporins” (QUEEN'S UNIVERSITY AT KINGSTON, priority 1983, dated 1985).

“And” between values parts separate entries of the source, which are not always exact repeats. Equal values may be shown once.

The test system of this assay is Escherichia coli. ess. In words: Agar diffusion bioassay of diluted original antibiotic solutions (Example 9). The note with it: in duplicate, indicator organism Escherichia coli. ess. More on the design: unit not given here. The class given is cell-based. The method, then: Example 2(a) above was repeated using SCV (15) as the starting material. [drawing 27] Antibiotic in reaction mixtures was estimated by the agar diffusion method. Cyclization reaction mixtures were bioassayed using Micrococcus luteus ATCC 9341 and Escherichia coli Ess as indicator organisms. Ring expansion reaction mixtures were bioassayed using E. coli Ess as indicator organism in agar plates supplemented with penicillinase at 2 x 10^5 units/ml.
One hour after the antibiotics were administered blood was collected from the rats into sterile citrate containing syringes. Blood samples were centrifuged to sediment red blood cells and 20 micro litre amounts of plasma were bioassayed in duplicate using Escherichia coli. ess. as the indicator organism. Original antibiotic solutions were also diluted and bioassayed in duplicate.
In general terms: A growth-free zone around the sample is the usual read-out of agar diffusion tests.

For the compound `CC1=C(C(=O)O)N2C(=O)[C@@H](NC(=O)CSCC(N)C(=O)O)[C@H]2SC1` (stereo partly shown) [(17), Carboxymethylcysteinyl-Desacetoxycephalosporin C], the “bioassay of original antibiotic solution” value runs as follows: (1 microgram per millilitre) 17.5 and 17.0; (10 micrograms per millilitre) 33.
With `CC(=O)OCC1=C(C(=O)[O-])N2C(=O)[C@@H](NC(=O)CCCC(N)C(=O)O)[C@H]2SC1.[Na+]` (stereo partly shown) [Na-Ceph-C, reference compound], the “bioassay of original antibiotic solution” value is 8.8 (1 microgram per millilitre) and 23.5 (10 micrograms per millilitre).
